For data set [1], the system named is hepcidin. Description: Randomized trial of ferric carboxymaltose vs. oral iron in non-responders: serum hepcidin levels by C-ELISA. Format: in vivo, human. To be noted: for Hepcidin on Day 35, mean (SD) / Hepcidin on Day 35, median / Hepcidin at baseline (Day 1), mean (SD) / Hepcidin at baseline (Day 1), median: non-responders to oral iron run-in; for Hepcidin at baseline (Day 1), mean (SD): before randomized treatment; for Hepcidin change to Day 35, mean (SD) / Hepcidin change to Day 35, median: change from baseline (Day 1) to Day 35; for change in hepcidin from baseline (Day 1) to Day 35, in words: non-responders to the oral iron run-in. How it is done:
(§1) Ferric carboxymaltose (Group A) was administered at a dose of 15 mg/kg to a maximum 750 mg per dose administered intravenously on Day 0 and Day 7. Oral iron was given as ferrous sulfate 325 mg three times a day for an additional 14 days starting on Day 0.
Hepcidin levels were analyzed from serum samples obtained at screening (Day […]) in an initial Analysis Group (I) of 44 subjects, 22 responders, and 22 non-responders. A hepcidin value of ≧20 ng/mL was identified as a cutoff for further study in the determination of predictive values for non-responsiveness to 14 day oral iron run-in in 240 subjects (Analysis Group II).
Hepcidin levels were also assessed after the oral iron run-in (Day 1) and after treatment with intravenous (IV) iron or oral iron post-randomization (Day 35). Hepcidin levels were measured using a commercially available competitive enzyme-linked immunosorbent assay (C-ELISA). Samples were collected by the investigator at the site, stored by a contract research organization (Covance, Indianapolis, Ind.) and sent to a commercial laboratory (Intrinsic LifeSciences, La Jolla, Calif.) for analysis.
(§2) The following example describes the randomized study of ferric carboxymaltose (FCM) vs. oral iron therapy on non-responders. Baseline (Day 1) and post-treatment (Day 35) levels of hepcidin and hemoglobin were compared.

For data set [2] the following is noted: in vitro and in vivo; cited from earlier work.
For data set [3] the following is noted: cited from earlier work.
For data set [4] the following is noted: in vivo; cited from earlier work.
Data set [5] deals with subjects with iron deficiency anemia (IDA). Description: Randomized trial of ferric carboxymaltose vs. oral iron in non-responders to the oral iron run-in: hemoglobin levels. Format: in vivo, human. Conditions: for Hemoglobin at baseline (Day 1), mean (SD): before randomized treatment, non-responders to oral iron run-in; for Hemoglobin change to Day 35, mean (SD) / Hemoglobin change to Day 35, median: change from baseline (Day 1) to Day 35; for percentage of subjects with a hemoglobin increase of ≧1 g/dL: non-responders to the oral iron run-in in whom hepcidin values were measured; for percentage of subjects with a hemoglobin increase of ≧1 g/dL / mean Hemoglobin increases / percentage of subjects with hemoglobin change ≧2 g/dL: after randomization; for mean Hemoglobin increases / percentage of subjects with hemoglobin change ≧2 g/dL: non-responders to the oral iron run-in. As to the method: The following example describes hepcidin measurements obtained during a randomized, multi-center, controlled trial comparing the efficacy and safety of ferric carboxymaltose in subjects with iron deficiency anemia (IDA) (see generally, Szczech 2011).
as §1
Hemoglobin levels and markers of iron status were assessed up to 35 days and measures of safety and tolerability were assessed up to 120 days. Hemoglobin levels and markers of iron status were assessed at screening (Day […]), Day 1, and Day 35.
as §2

Data set [6] concerns rabbit. To be noted: intra-arterial, perivenous or intravenous; cited from earlier work.
In data set [7] the test system is dogs and rats. To be noted: cumulative doses over 13 weeks, dose-related clinical signs of iron accumulation in liver, spleen, kidneys; cited from earlier work.
For data set [8], the system named is rodents and dogs. Conditions: single dose; cited from earlier work.
Data set [9] relates to dextran antibodies. To be noted: cited from earlier work.
The test system of data set [10] is subjects with iron deficiency anemia (IDA). Conditions: Analysis Group II, ferrous sulfate 325 mg three times daily for 14 days.
Protocol: Eligibility for this trial included subjects≧18 years of age with hemoglobin≦11 g/dL and IDA of any etiology with ferritin≦100 ng/mL, or ≦300 ng/mL when transferrin saturation (TSAT) was ≦30%.
The following example describes the determination and comparison of hepcidin levels in 240 subjects with response to oral iron. Hepcidin and other iron indices were measured and compared. The objective of the study was to determine the baseline characteristics of the subject population and to compare levels of hepcidin, hemoglobin, and iron indices in responders and non-responders after a 14 day treatment of oral iron.
Setting [11] is: listed as ferric carboxymaltose.

Read-outs that look alike come from different tables or passages of the source.

Regarding “polynuclear iron (III)-hydroxide 4(R)-(poly-(1→4)-O-α-glucopyranosyl)-oxy-2(R),3(S),5(R),6-tetrahydroxy-hexanoate [FCM]”, in data set [1], the “Hepcidin on Day 35, mean (SD)” value is listed as 160.5 (181.543) ng/mL; the “Hepcidin on Day 35, median” value was found to be 112.6 ng/mL; the “Hepcidin at baseline (Day 1), mean (SD)” value is given as 39.2 (92.236) ng/mL; the “Hepcidin at baseline (Day 1), median” value is reported as 2.5 ng/mL. Also, in data set [1], the “Hepcidin change to Day 35, mean (SD)” value was 121.35 (115.977) ng/mL; the “Hepcidin change to Day 35, median” value turned out to be 91.9 ng/mL; the “change in hepcidin from baseline (Day 1) to Day 35, in words” value was “significant increase”. In data set [1] (setting [11]), the “Hepcidin on Day 35, mean (SD)” value amounted to 160.51 ng/mL; the “Hepcidin at baseline (Day 1), mean (SD)” value is given as 39.15 ng/mL; the “Hepcidin change to Day 35, mean (SD)” value is given as 121.35 ng/mL. For the same substance, the mutagenicity result in [2] is recorded as “no evidence that FCM is clastogenic, mutagenic, or causes chromosomal damage or bone marrow cell toxicity”. Also, in data set [3] (eight hours after intravenous administration), the “injected amount still in the blood” value is reported as 5 to 20%. In addition, the “projected calculated terminal half-life (t½)” value in [3] (intravenous) is “approximately 16 hours”. For the same substance, the “acute toxicity relative to iron sucrose” value in [4] is on record as “one-fifth that of iron sucrose”. Also, in [5], the “Hemoglobin on Day 35, mean (SD)” value is 12.0 (1.4) g/dL; the “Hemoglobin on Day 35, median” value is listed as 12.2 g/dL; the “Hemoglobin at baseline (Day 1), median” value was 10.4 g/dL; the “Hemoglobin at baseline (Day 1), mean (SD)” value is 10.3 (1.1) g/dL. Further, in data set [5], the “Hemoglobin change to Day 35, mean (SD)” value is given as 1.7 (1.3) g/dL; the “Hemoglobin change to Day 35, median” value is on record as 1.7 g/dL; the “percentage of subjects with a hemoglobin increase of ≧1 g/dL” value came to 65.3%; the “mean Hemoglobin increases” value amounted to 1.7±1.3 gm/dL. Moreover, the “percentage of subjects with hemoglobin change ≧2 g/dL” value in [5] is 37.5%. In data set [5] (setting [11]), the “Hemoglobin change to Day 35, mean (SD)” value is listed as 1.7 g/dL. Further, in data set [6], the “treatment-related local tissue irritation” value is “No treatment-related local tissue irritation was observed”. For the same substance, the “no observed adverse effect level, cumulative dose” value in data set [7] is on record as “up to 117 mg iron/kg body weight”. Besides, the “safe and tolerated intravenous dose as multiple of the equivalent of an intravenous infusion of 1,000 mg iron once weekly in humans” value in data set [8] is “up to 60 times”. In data set [9], the “reaction with dextran antibodies” value is reported as “does not react with dextran antibodies” and the “specific responses in a dextran antigenicity test” value is on record as “no specific responses”.

In the case of iron sucrose, in [3] (in vivo, iv), the “injected amount still in the blood” value is given as 2 to 13% and the “projected calculated terminal half-life (t½)” value is 6 h.

With ferrous sulfate [Oral iron], the “hemoglobin change after the 14 day oral iron run-in, non-responders” value in [10] (non-responders (Hb Δ <1 g/dL)) was 0.2 ± 0.4 g/dL. The “hemoglobin change after the 14 day oral iron run-in, responders” value in data set [10] (responders (Hb Δ ≧1 g/dL)) worked out at 1.8 ± 0.6 g/dL. Besides, in data set [1], the “Hepcidin on Day 35, mean (SD)” value is listed as 29.0 (53.894) ng/mL; the “Hepcidin on Day 35, median” value stood at 10.5 ng/mL; the “Hepcidin at baseline (Day 1), mean (SD)” value is listed as 32.0 (44.314) ng/mL; the “Hepcidin at baseline (Day 1), median” value is on record as 19.6 ng/mL. Besides, in [1], the “Hepcidin change to Day 35, mean (SD)” value was −3.02 (41.793) ng/mL; the “Hepcidin change to Day 35, median” value was -6.0 ng/mL; the “change in hepcidin from baseline (Day 1) to Day 35, in words” value is reported as “no significant change”. For the same substance, in data set [1] (listed as oral iron), the “Hepcidin at baseline (Day 1), mean (SD)” value was found to be 32.03 ng/mL. In [5], the “Hemoglobin on Day 35, mean (SD)” value is recorded as 11.0 (1.3) g/dL; the “Hemoglobin on Day 35, median” value is listed as 10.9 g/dL; the “Hemoglobin at baseline (Day 1), median” value stood at 10.7 g/dL; the “Hemoglobin at baseline (Day 1), mean (SD)” value is 10.4 (1.2) g/dL. Moreover, in [5], the “Hemoglobin change to Day 35, mean (SD)” value was 0.6 (0.9) g/dL; the “Hemoglobin change to Day 35, median” value was determined as 0.5 g/dL; the “percentage of subjects with a hemoglobin increase of ≧1 g/dL” value was found to be 20.8%; the “mean Hemoglobin increases” value turned out to be 0.6±0.9 gm/dL. For the same substance, in data set [5], the “percentage of subjects with hemoglobin change ≧2 g/dL” value is 5.2%. In data set [5] (listed as oral iron), the “Hemoglobin change to Day 35, mean (SD)” value is given as 0.6 g/dL.

The record behind these values is patent US20150202224A1, “METHOD OF TREATING IRON DEFICIENCY ANEMIA” (Luitpold Pharmaceuticals, Inc., priority 2012, published 2015).
